The text below walks through data of ChEMBL document CHEMBL5512666, “Selenization of Small Molecule Drugs: A New Player on the Board” (J Med Chem, 2024).

One data set has as its system Cryptococcus neoformans. Description: Antifungal activity against Cryptococcus neoformans CGMCC 2.3161. Format: functional.
Another data set deals with Candida tropicalis. Description: Antifungal activity against Candida tropicalis CGMCC 2.3739. It is filed as functional.
Data set [1] deals with Candida albicans. Description: Antifungal activity against Candida albicans SC5314. It is filed as functional.
Data set [2] in a line: Stability in rat plasma assessed as half life. It is filed as ADME, cell-free.
For a further data set, the system named is Pichia kudriavzevii. Briefly: Antifungal activity against Candida krusei AS 2.1045. Format: functional.
The subject of data set [3] is Candida albicans. Briefly: Antifungal activity against Candida albicans CPCC 400616. It is filed as functional.
In a further data set the test system is Aspergillus fumigatus. Briefly: Antifungal activity against Aspergillus fumigatus CGMCC 3.7795. It is filed as functional.
Another data set concerns Candida parapsilosis. Briefly: Antifungal activity against Candida parapsilosis 22019. Format: functional. Conditions: Lodderomyces parapsilosis.
Another data set concerns Nakaseomyces glabratus. Description: Antifungal activity against Candida glabrata. Format: functional.
The nature of data set [4]: Cytotoxicity against mouse NIH3T3 cells measured after 72 hrs. Format: toxicity, cell-based.
Data set [5] has as its system HeLa. Description: Cytotoxicity against human HeLa cells measured after 72 hrs. It is filed as functional, cell-based.
Data set [6] in a line: Cytotoxicity against mouse L929 cells measured after 72 hrs. It is filed as toxicity, cell-based.
For a further data set, the system named is HCT-116. Description: Cytotoxicity against human HCT-116 cells measured after 72 hrs. It is filed as functional, cell-based. As to conditions: HCT-116, 72 h.
Data set [7] relates to A549. Briefly: Cytotoxicity against human A549 cells measured after 72 hrs. It is filed as functional, cell-based. Conditions: A549, 72 h.
Another data set concerns PC-3. Briefly: Cytotoxicity against human PC-3 cells incubated for 48 hrs. Conditions: PC-3, 48 h. Format: functional, cell-based.
The test system of the next data set is MIA PaCa-2. Briefly: Cytotoxicity against human MIA PaCa-2 cells assessed as reduction in cell viability incubated for 48 hrs by MTT assay. It is filed as functional, cell-based. As to conditions: MIA PaCa-2, 48 h. A general note: Tetrazolium assays rely on reduction of a dye to a coloured formazan, in cell work by metabolically active cells.
The subject of the next data set is LNCaP. Description: Cytotoxicity against human LNCaP cells incubated for 48 hrs. It is filed as functional, cell-based.
Data set [8] is described as follows: Cytotoxicity against MEF cells assessed as reduction in cell viability incubated for 48 hrs by MTT assay. It is filed as toxicity, cell-based. Conditions: mouse.
Another data set has as its system DU-145. Description: Cytotoxicity against human DU-145 cells incubated for 48 hrs. It is filed as functional, cell-based. Conditions: DU-145, 48 h.
Another data set relates to BXPC-3. Description: Cytotoxicity against human BXPC-3 cells assessed as reduction in cell viability incubated for 48 hrs by MTT assay. It is filed as functional, cell-based. Conditions: BXPC-3, 48 h.
Another data set concerns PANC-1. Description: Cytotoxicity against human PANC-1 cells assessed as reduction in cell viability incubated for 48 hrs by MTT assay. It is filed as functional, cell-based. As to conditions: PANC-1, 48 h.
The test system of data set [9] is A549. Description: Cytotoxicity against human A549 cells assessed as inhibition of cell growth incubated for 96 hrs by MTT assay. Conditions: A549, 96 h. It is filed as functional, cell-based.
The subject of data set [10] is HeLa. Description: Cytotoxicity against human HeLa cells assessed as inhibition of cell growth incubated for 96 hrs by MTT assay. It is filed as functional, cell-based.
The test system of the next data set is SMMC-7721. Description: Cytotoxicity against human SMMC-7721 cells assessed as inhibition of cell growth incubated for 96 hrs by MTT assay. It is filed as functional, cell-based. As to conditions: SMMC-7721, 96 h.
The subject of a further data set is HepG2. Briefly: Cytotoxicity against human HepG2 cells assessed as inhibition of cell growth incubated for 96 hrs by MTT assay. It is filed as functional, cell-based. As to conditions: HepG2, 96 h.
A further data set concerns the target Lactoperoxidase (Homo sapiens, UniProt P22079). Briefly: Inhibition of LPO (unknown origin)-mediated L-tyrosine nitration incubated for 20 mins in presence of H2O2 and sodium nitrite by RP-HPLC analysis.

≈ marks a conversion by molar mass, not a printed value.

By MIC is commonly meant the lowest concentration that inhibits growth of the organism. As a reminder, the half-life is the time in which the quantity being followed falls by half. The IC50 is the concentration at which inhibition is half-maximal.

Chain of Lactoperoxidase (P22079 whole entry): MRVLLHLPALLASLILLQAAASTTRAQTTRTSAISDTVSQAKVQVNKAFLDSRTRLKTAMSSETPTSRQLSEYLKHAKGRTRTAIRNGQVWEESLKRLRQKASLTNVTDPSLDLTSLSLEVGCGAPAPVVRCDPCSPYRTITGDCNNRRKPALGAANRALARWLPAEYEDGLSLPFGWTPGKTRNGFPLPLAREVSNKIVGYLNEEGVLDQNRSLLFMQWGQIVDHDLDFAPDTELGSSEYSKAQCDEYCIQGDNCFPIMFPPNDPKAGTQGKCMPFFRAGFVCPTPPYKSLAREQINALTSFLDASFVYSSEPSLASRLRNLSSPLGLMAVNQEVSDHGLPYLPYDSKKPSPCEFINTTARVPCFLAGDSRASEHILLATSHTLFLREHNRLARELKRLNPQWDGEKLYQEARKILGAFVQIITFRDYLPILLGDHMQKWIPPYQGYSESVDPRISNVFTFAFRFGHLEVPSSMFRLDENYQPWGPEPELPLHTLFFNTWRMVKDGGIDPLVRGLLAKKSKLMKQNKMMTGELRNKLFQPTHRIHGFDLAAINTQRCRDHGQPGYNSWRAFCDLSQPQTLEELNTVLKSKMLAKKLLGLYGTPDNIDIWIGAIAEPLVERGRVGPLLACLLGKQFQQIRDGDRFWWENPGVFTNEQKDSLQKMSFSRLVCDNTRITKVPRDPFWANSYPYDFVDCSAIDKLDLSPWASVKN

With `Cc1ccccc1[Se]C(Cn1ccnc1)c1ccc(Cl)cc1` (stereo unspecified), the MIC in the data set on Cryptococcus neoformans was 0.5 µg/mL (≈ 1.33 µM); in the data set with Candida tropicalis it was 0.03 µg/mL (≈ 0.0798 µM); with Candida albicans [1] it was 0.03 µg/mL (≈ 0.0798 µM); against Pichia kudriavzevii, 0.13 µg/mL (≈ 0.346 µM); in the data set with Candida albicans [3], 0.06 µg/mL (≈ 0.16 µM); against Aspergillus fumigatus it was 4 µg/mL (≈ 10.6 µM). For the same compound, the MIC in the data set with Candida parapsilosis and in the data set on Nakaseomyces glabratus was 0.5 µg/mL (≈ 1.33 µM) in each case. The half-life in data set [2] is over 6 h.

On to `CC[C@@]1(OC(=O)OCc2ccc(O/C=C/[Se]c3ccccc3)cc2)C(=O)OCc2c1cc1n(c2=O)Cc2cc3ccccc3nc2-1`, for which the IC50 at 72 h in data set [4] was 1.18 µM; in data set [6] it was 10.2 µM. Also, the IC50 was determined as 0.308 µM in the data set on HeLa [5], 0.043 µM in the data set on HCT-116 and 0.102 µM in the data set with A549 [7].

For the compound `CC(=O)Oc1ccccc1C(=O)/N=C1\[Se]CCN1C(=O)c1ccccc1OC(C)=O`, the IC50 in the data set with PC-3 was 1.7 µM; with MIA PaCa-2 it was 3.03 µM; with LNCaP, 2.34 µM; with DU-145, 0.52 µM; with BXPC-3 it was 2.09 µM; with PANC-1, 0.74 µM. For the same compound, the IC50 at 48 h in data set [8] is over 50 µM.

As for `Nc1ccn([C@@H]2O[C@H](CO)[C@@H](O)C2(F)F)c(=O)n1` [GEMCITABINE], the IC50 with A549 [9] came out at 0.69 µM; with HeLa [10] it was 3.9 µM; with SMMC-7721, 0.46 µM; in the data set with HepG2, 2.46 µM.

Turning to `Cn1cc[nH]c1=S` [METHIMAZOLE], the IC50 on Lactoperoxidase turned out to be 0.51 µM.

Turning to `O=C(Nc1ccn([C@@H]2O[C@H](CO)[C@@H](O)C2(F)F)c(=O)n1)OC1C[Se][Se]C1`, the IC50 in the data set on A549 [9] stood at 0.11 µM; with HeLa [10] it was 0.88 µM; in the data set on SMMC-7721, 0.33 µM; in the data set on HepG2, 0.47 µM.

With `COc1cccc(Cn2ccn(Cc3cccc(OC)c3)c2=S)c1`, the IC50 on Lactoperoxidase stood at 137 µM.

On to `CC[C@@]1(O)C(=O)OCc2c1cc1n(c2=O)Cc2cc3ccccc3nc2-1` [CAMPTOTHECIN], for which the IC50 at 72 h in [4] is 0.086 µM; in [6], 1.13 µM. The figures for the IC50 in the data set on HeLa [5], with HCT-116 and in the data set on A549 [7] were 0.108 µM, 0.011 µM and 0.021 µM, respectively.
